# Measurements from patent US20190119282A1, “IMIDAZOPYRIDAZINES USEFUL AS INHIBITORS OF THE PAR-2 SIGNALING PATHWAY” (Vertex Pharmaceuticals Incorporated, priority 2013, published 2019).
# Columns and labels:
# [1] = biological target: T1, PAR2 (HT-29 cells, trypsin activation) (Homo sapiens, UniProt P55085); experiment: Ca FLIPR TETRA assay, ANTAGONIST mode, stimulation with 3.1 U/mL trypsin; format: cell-based; conditions: HT-29 cells
# T1 construct: host or cells: HT-29 cells
# T1 sequence (P55085 26-397): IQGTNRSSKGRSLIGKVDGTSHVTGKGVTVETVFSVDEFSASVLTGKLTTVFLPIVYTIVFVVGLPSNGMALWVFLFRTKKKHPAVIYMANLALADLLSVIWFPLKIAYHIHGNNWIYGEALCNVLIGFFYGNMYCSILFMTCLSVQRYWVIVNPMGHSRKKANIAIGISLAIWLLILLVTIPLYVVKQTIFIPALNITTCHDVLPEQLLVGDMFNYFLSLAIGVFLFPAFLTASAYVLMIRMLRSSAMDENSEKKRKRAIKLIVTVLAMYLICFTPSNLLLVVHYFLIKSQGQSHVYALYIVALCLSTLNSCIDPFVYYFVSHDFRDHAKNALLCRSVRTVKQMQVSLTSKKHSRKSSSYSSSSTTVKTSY
# In short: (§1)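 Inhibition of activator-evoked Ca2+ flux was recorded on FLIPR Tetra in HT-29 cells after 30 min compound exposure at r.t. A prior read checked whether compounds alone triggered Ca2+ release.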
# [2] = test system: UTP-stimulated Ca2+ response in HT-29 cells; experiment: Ca FLIPR TETRA assay, ANTAGONIST mode, stimulation with 0.6 μM UTP; format: cell-based, human; conditions: Homo sapiens, HT-29 cells
# In short: as §1
# [3] = test system: Thrombin-stimulated Ca2+ response in HT-29 cells; experiment: Ca FLIPR TETRA assay, ANTAGONIST mode, stimulation with 1 U/mL Thrombin; format: cell-based, human; conditions: Homo sapiens, HT-29 cells
# In short: as §1
# [4] = biological target: T2, PAR2 (HT-29 cells, SLIGKV activation) (Homo sapiens, UniProt P55085); experiment: Ca FLIPR TETRA assay, ANTAGONIST mode, stimulation with 8 μM SLIGKV; format: cell-based; conditions: HT-29 cells
# T2 construct: host or cells: HT-29 cells
# T2 sequence (P55085 26-397): T1 sequence (P55085 26-397)
# In short: as §1
# [5] = stimulation with 3.1 U/mL trypsin
# [6] = stimulation with 1 U/mL Thrombin
# [7] = antagonist mode, stimulation with 3.1 U/mL trypsin
# [8] = antagonist mode, stimulation with 0.6 μM UTP
# [9] = antagonist mode, stimulation with 1 U/mL Thrombin
# [10] = antagonist mode, stimulation with 8 μM SLIGKV
SMILES,"IC50 [1, 5] [nM]",IC50 ([2]; stimulation with 0.6 μM UTP) [nM],"IC50 [3, 6] [nM]",IC50 ([4]; stimulation with 8 μM SLIGKV) [nM],"IC50 [1, 7] [nM]","IC50 [2, 8] [nM]","IC50 [3, 9] [nM]","IC50 [4, 10] [nM]",further results
CC(C)c1cc(-c2ccc(F)cc2)nn2cc(C(=O)N3CCN(C(=O)CC4CCCC4)[C@@H](C)C3)nc12 [Compound I-121],7,> 500,9200,4,,,,,
CC(C)c1cc(-c2ccc(C(F)(F)F)c(F)c2)nn2cc(C(=O)N3CCNC(=O)C3(C)C)nc12 [Compound I-273],,,,,1.2,> 1000,> 1000,0.7,
CC(C)c1cc(-c2ccc(C(F)(F)F)cc2)nn2cc(C(=O)N3CCN(C(=O)c4nc[nH]n4)CC3(C)C)nc12 [Compound I-279],,,,,4.6,> 1000,> 1000,3.3,
Cc1cc(C(=O)N2CCN(C(=O)c3cn4nc(-c5ccc(F)cc5)cc(C(C)(C)C)c4n3)C(C)(C)C2)no1 [Compound I-433],,,,,1.1,> 1000,> 1000,0.7,
CC(C)c1cc(-c2ccc(F)cc2)nn2cc(C(=O)N3CCN(C(=O)C(O)Cc4ccccc4)[C@@H](C)C3)nc12 (stereo partly shown) [Compound I-113],3,7200,8400,0.8,,,,,
Cc1ccc(-c2cc(C(C)(C)C)c3nc(C(=O)N4CCN(C(=O)c5cnc(C)[nH]5)CC4(C)C)cn3n2)cc1 [Compound I-422],,,,,2,> 1000,> 1000,1.9,
CCc1cc(-c2ccc(F)cc2)nn2cc(C(=O)N3CCN(C(=O)[C@H](O)C(C)C)CC3(C)C)nc12 [Compound I-166],53,27000,23000,16,,,,,
CC(C)c1cc(-c2ccc(F)cc2)nn2cc(C(=O)N3CCN(C(=O)C(O)c4ccccc4)[C@@H](C)C3)nc12 (stereo partly shown) [Compound I-117],0.9,8100,9600,0.3,,,,,
Cc1cc(-c2cc(C(C)(C)C)c3nc(C(=O)N4CCN(C(=O)C5CC(C)(O)C5)CC4(C)C)cn3n2)ccc1F (stereo not shown) [Compound I-384],,,,,0.8,> 1000,> 1000,0.6,
CC(C)(O)C1CCCN(C(=O)c2cn3nc(-c4ccc(F)cc4)cc(C(F)(F)F)c3n2)C1 (stereo not shown) [Compound I-69],9300,36000,8500,6000,,,,,
"CC1(C)CN(C(=O)C2(O)CCOCC2)CCN1C(=O)c1cn2nc(-c3ccc(F)cc3)cc(C(F)(F)F)c2n1 [Compound I-38, [6-(4-Fluorophenyl)-8-(trifluoromethyl)imidazo[1,2-b]pyridazin-2-yl]-[4-(4-hydroxytetrahydropyran-4-carbonyl)-2,2-dimethyl-piperazin-1-yl]methanone]",480,> 45000,> 50000,390,,,,,
CC(C)c1cc(-c2ccc(F)cc2)nn2cc(C(=O)N3CCN(C)C(=O)C3(C)C)nc12 [Compound I-181],11,5800,10000,10,,,,,
CC(C)c1cc(-c2ccc(F)cc2)nn2cc(C(=O)N3CCN(C(=O)C(C)(N)C(F)(F)F)CC3(C)C)nc12 (stereo not shown) [Compound I-314],,,,,7.6,> 1000,> 1000,10.4,
"CC(C)(O)C(=O)N1CCN(C(=O)c2cn3nc(-c4ccc(F)cc4)cc(C4CC4)c3n2)C(C)(C)C1 [Compound I-20, 1-[4-[8-cyclopropyl-6-(4-fluorophenyl)imidazo[1,2-b]pyridazine-2-carbonyl]-3,3-dimethyl-piperazin-1-yl]-2-hydroxy-2-methyl-propan-1-one]",1020,3000,3600,280,,,,,
CC(C)(C)c1cc(-c2ccc(Cl)c(F)c2)nn2cc(C(=O)N3CCNC(=O)C3(C)C)nc12 [Compound I-419],,,,,0.9,> 1000,> 1000,1.1,
Cc1n[nH]c(C(=O)N2CCN(C(=O)c3cn4nc(-c5ccc(F)cc5)cc(C(C)C)c4n3)C(C)(C)C2)n1 [Compound I-475],,,,,7.1,13700,10300,3.8,
CC(C)(C)c1cc(-c2ccc(F)c(Cl)c2)nn2cc(C(=O)N3CCN(C(=O)[C@H]4CC[C@H](C(=O)O)CC4)CC3(C)C)nc12 [Compound I-488],,,,,4.2,> 1000,> 1000,4.2,
C[C@H]1CN(C(=O)c2cn3nc(-c4ccc(F)cc4)cc(C(F)(F)F)c3n2)CCN1C(=O)OCC(C)(C)C [Compound I-82],100,22000,14000,22,,,,,
"CC(C)c1cc(-c2ccc(F)cc2)nn2cc(C(=O)N3CCNC(=O)C3(C)C)nc12 [Compound I-25, 4-[6-(4-fluorophenyl)-8-isopropyl-imidazo[1,2-b]pyridazine-2-carbonyl]-3,3-dimethyl-piperazin-2-one]",21,> 50000,> 50000,9,,,,,
CC(C)c1cc(-c2ccc(Cl)cc2)nn2cc(C(=O)N3CCNC(=O)C3(C)C)nc12 [Compound I-353],,,,,3,> 1000,> 1000,2.4,
Cc1noc(C2CCCCN2C(=O)c2cn3nc(-c4ccc(F)cc4)cc(C(F)(F)F)c3n2)n1 (stereo not shown) [Compound I-72],1500,> 50000,50000,1400,,,,,
"CC(C)c1cc(-c2ccc(F)cc2)nn2cc(C(=O)N3CCC4(CC3)CNC(=O)O4)nc12 [Compound I-24, 8-[6-(4-fluorophenyl)-8-isopropyl-imidazo[1,2-b]pyridazine-2-carbonyl]-1-oxa-3,8-diazaspiro[4.5]decan-2-one]",590,> 50000,> 50000,220,,,,,
COC(=O)C1CC(C(=O)N2CCN(C(=O)c3cn4nc(-c5ccc(Cl)cc5)cc(C(C)C)c4n3)C(C)(C)C2)C1 (stereo not shown) [Compound I-544],,,,,1.8,> 1000,> 1000,1.5,
CC(C)c1cc(-c2ccc(F)cc2)nn2cc(C(=O)N3CCN(C(=O)CCC4CCC4)[C@@H](C)C3)nc12 [Compound I-144],5,5200,6600,2,,,,,
CC1CN(C(=O)c2cn3nc(-c4ccc(F)cc4)cc(C(F)(F)F)c3n2)CCC1O (stereo not shown) [Compound I-68],13000,29000,19000,5900,,,,,
"CC(C)(C)c1cc(-c2ccc(F)cc2)nn2cc(C(=O)N3CCN(C(=O)CCC(=O)O)CC3(C)C)nc12 [Compound I-560, 4-(4-(8-(tert-butyl)-6-(4-fluorophenyl)imidazo[1,2-b]pyridazine-2-carbonyl)-3,3-dimethylpiperazin-1-yl)-4-oxobutanoic acid]",,,,,,,,,"IC50 ([1]; antagonist mode, 3.1 U/mL trypsin): 9.3 nM; IC50 ([2]; antagonist mode, 0.6 μM UTP): > 1000 nM; IC50 ([3]; antagonist mode, 1 U/mL Thrombin): > 1000 nM; IC50 ([4]; antagonist mode, 8 μM SLIGKV): 4.9 nM"
Cc1n[nH]c(C(=O)N2CCN(C(=O)c3cn4nc(-c5ccc(C(F)(F)F)cc5)cc(C(C)(C)C)c4n3)C(C)(C)C2)n1 [Compound I-403],,,,,1.5,> 1000,> 1000,1,
CC(C)(C)c1cc(-c2ccc(F)cc2)nn2cc(C(=O)N3CCN(C4CC4)C(=O)C3(C)C)nc12 [Compound I-206],,,,,0.8,> 1000,> 1000,0.8,
